Values after ≈ are worked out from the molar mass of the structure shown.
Assays:
Format in all cases: functional
Staphylococcus aureus [1] = experiment: Antibacterial activity against macrolide-susceptible Staphylococcus aureus ATCC 29213
Staphylococcus aureus [2] = experiment: Antibacterial activity against macrolide-resistant Staphylococcus aureus ATCC 33591 constitutively expressing ermA
Staphylococcus aureus [3] = experiment: Ratio of MIC for macrolide-resistant Staphylococcus aureus ATCC 33591 to MIC for macrolide-susceptible Staphylococcus aureus ATCC 29213

Row | SMILES | MIC (Staphylococcus aureus [1]) | MIC (Staphylococcus aureus [2]) | Ratio (Staphylococcus aureus [3])
1 | CC[C@H]1OC(=O)[C@H](C)[C@@H](O[C@H]2C[C@@](C)(OC)[C@@H](O)[C@H](C)O2)[C@H](C)[C@@H](O[C@@H]2O[C@H](C)C[C@H](NC)[C@H]2O)[C@](C)(OC)C[C@@H](C)C(=O)[C@H](C)[C@@H](O)[C@]1(C)O | 4 µg/mL (≈ 5.45 µM) | > 256 µg/mL | 
2 | CC[C@H]1OC(=O)[C@H](C)[C@@H](O[C@H]2C[C@@](C)(OC)[C@@H](O)[C@H](C)O2)[C@H](C)[C@@H](O[C@@H]2O[C@H](C)C[C@H](NC)[C@H]2O)[C@](C)(O)C[C@@H](C)C(=O)[C@H](C)[C@@H](O)[C@]1(C)O | 8 µg/mL (≈ 11.1 µM) | > 256 µg/mL | 
3 | CC[C@H]1OC(=O)[C@H](C)[C@@H](O[C@H]2C[C@@](C)(OC)[C@@H](O)[C@H](C)O2)[C@H](C)[C@@H](O[C@@H]2O[C@H](C)C[C@H](N(C)C(=N)N)[C@H]2O)[C@](C)(OC)C[C@@H](C)C(=O)[C@H](C)[C@@H](O)[C@]1(C)O | 32 µg/mL (≈ 41.2 µM) | > 256 µg/mL | 
4 | CC[C@H]1OC(=O)[C@H](C)[C@@H](O[C@H]2C[C@@](C)(OC)[C@@H](O)[C@H](C)O2)[C@H](C)[C@@H](O[C@H]2C[C@@H](N(C)C)C[C@@H](C)O2)[C@](C)(O)C[C@@H](C)C(=O)[C@H](C)[C@@H](O)[C@]1(C)O | 64 µg/mL (≈ 89.1 µM) | > 256 µg/mL | 
5 | CC[C@H]1OC(=O)[C@H](C)[C@@H](O[C@H]2C[C@@](C)(OC)[C@@H](O)[C@H](C)O2)[C@H](C)[C@@H](O[C@H]2C[C@@H](N(C)C)C[C@@H](C)O2)[C@](C)(OC)C[C@@H](C)C(=O)[C@H](C)[C@@H](O)[C@]1(C)O | 64 µg/mL (≈ 87.4 µM) | > 256 µg/mL | 
6 | CC[C@H]1OC(=O)[C@H](C)C(=O)[C@H](C)[C@@H](O[C@@H]2O[C@H](C)C[C@H](NC)[C@H]2O)[C@](C)(OC)C[C@@H](C)C(=O)[C@H](C)[C@H]2N(CCCCn3cnc(-c4cccnc4)c3)C(=O)O[C@]12C | 16 µg/mL (≈ 20.1 µM) | > 256 µg/mL | 
7 | CC[C@H]1OC(=O)[C@H](C)C(=O)[C@H](C)[C@@H](O[C@H]2C[C@@H](N(C)C)C[C@@H](C)O2)[C@](C)(OC)C[C@@H](C)C(=O)[C@H](C)[C@H]2N(CCCCn3cnc(-c4cccnc4)c3)C(=O)O[C@]12C | 8 µg/mL (≈ 10.1 µM) | > 256 µg/mL | 
8 | CCCCN(C)[C@H]1C[C@@H](C)O[C@@H](O[C@@H]2[C@@H](C)C(=O)[C@@H](C)C(=O)O[C@H](CC)[C@@]3(C)OC(=O)N(CCCCn4cnc(-c5cccnc5)c4)[C@@H]3[C@@H](C)C(=O)[C@H](C)C[C@@]2(C)OC)[C@@H]1O | 0.5 µg/mL (≈ 0.585 µM) | > 256 µg/mL | 
9 | CCCCN(C)[C@@H]1C[C@H](O[C@@H]2[C@@H](C)C(=O)[C@@H](C)C(=O)O[C@H](CC)[C@@]3(C)OC(=O)N(CCCCn4cnc(-c5cccnc5)c4)[C@@H]3[C@@H](C)C(=O)[C@H](C)C[C@@]2(C)OC)O[C@H](C)C1 | 64 µg/mL (≈ 76.4 µM) | > 256 µg/mL | 
10 | CC[C@H]1OC(=O)[C@H](C)C(=O)[C@H](C)[C@@H](O[C@H]2C[C@@H](N(C)C)C[C@@H](C)O2)[C@](C)(OC/C=C/c2cnc3ccccc3c2)C[C@@H](C)C(=O)[C@H](C)[C@H]2NC(=O)O[C@@]21C | 4 µg/mL (≈ 5.33 µM) | > 256 µg/mL | 
11 | CC[C@H]1OC(=O)[C@H](C)C(=O)[C@H](C)[C@@H](O[C@@H]2O[C@H](C)C[C@H](N(C)C)[C@H]2O)[C@](C)(OCC=Cc2cnc3ccccc3c2)C[C@@H](C)C(=O)[C@H](C)[C@H]2NC(=O)O[C@@]21C [CETHROMYCIN] | 0.0075 µg/mL (≈ 0.00979 µM) | > 256 µg/mL | >10000
12 | CC[C@H]1OC(=O)[C@H](C)[C@@H](O[C@H]2C[C@@](C)(OC)[C@@H](O)[C@H](C)O2)[C@H](C)[C@@H](O[C@@H]2O[C@H](C)C[C@H](N(C)C)[C@H]2O)[C@](C)(O)C[C@@H](C)C(=O)[C@H](C)[C@@H](O)[C@]1(C)O [ERYTHROMYCIN] | 0.5 µg/mL (≈ 0.681 µM) | > 256 µg/mL | 
13 | CC[C@H]1OC(=O)[C@H](C)C(=O)[C@H](C)[C@@H](O[C@@H]2O[C@H](C)C[C@H](N(C)C)[C@H]2O)[C@](C)(OC)C[C@@H](C)C(=O)[C@H](C)[C@H]2N(CCCCn3cnc(-c4cccnc4)c3)C(=O)O[C@]12C [TELITHROMYCIN] | 0.08 µg/mL (≈ 0.0985 µM) | > 256 µg/mL | 

From ChEMBL document CHEMBL2062457, “Synthesis and antibacterial activity of desosamine-modified macrolide derivatives” (2012)
